ChEMBL document CHEMBL1154382, “Preliminary SAR analysis of novel antiproliferative N(6),5'-bis-ureidoadenosine derivatives” (2009)

How the values were obtained:
Type in all cases: functional
Conditions in all cases: values are per cent of control
ACHN = experiment: Antiproliferative activity against human ACHN cells at 10 uM assessed as cell growth inhibition relative to control
OVCAR-3 = experiment: Antiproliferative activity against human OVCAR-3 cells at 10 uM assessed as cell growth inhibition relative to control
Malme-3M = experiment: Antiproliferative activity against human MALME-3M cells at 10 uM assessed as cell growth inhibition relative to control
TK-10 = experiment: Antiproliferative activity against human TK10 cells at 10 uM assessed as cell growth inhibition relative to control
M14 = experiment: Antiproliferative activity against human M14 cells at 10 uM assessed as cell growth inhibition relative to control
SNB-75 = experiment: Antiproliferative activity against human SNB75 cells at 10 uM assessed as cell growth inhibition relative to control
DU-145 = experiment: Antiproliferative activity against human DU145 cells at 10 uM assessed as cell growth inhibition relative to control
HCC 2998 = experiment: Antiproliferative activity against human HCC2998 cells at 10 uM assessed as cell growth inhibition relative to control
OVCAR-8 = experiment: Antiproliferative activity against human OVCAR8 cells at 10 uM assessed as cell growth inhibition relative to control
SK-MEL-28 = experiment: Antiproliferative activity against human SK-MEL-28 cells at 10 uM assessed as cell growth inhibition relative to control
NCI-H23 = experiment: Antiproliferative activity against human NCI-H23 cells at 10 uM assessed as cell growth inhibition relative to control
CAKI-1 = experiment: Antiproliferative activity against human Caki1 cells at 10 uM assessed as cell growth inhibition relative to control
HT-29 = experiment: Antiproliferative activity against human HT-29 cells at 10 uM assessed as cell growth inhibition relative to control
NCI-H226 = experiment: Antiproliferative activity against human NCI-H226 cells at 10 uM assessed as cell growth inhibition relative to control
SNB-19 = experiment: Antiproliferative activity against human SNB19 cells at 10 uM assessed as cell growth inhibition relative to control
MOLT-4 = experiment: Antiproliferative activity against human MOLT4 cells at 10 uM assessed as cell growth inhibition relative to control
BT-549 = experiment: Antiproliferative activity against human BT549 cells at 10 uM assessed as cell growth inhibition relative to control
K562 = experiment: Antiproliferative activity against human K562 cells at 10 uM assessed as cell growth inhibition relative to control
SN12C = experiment: Antiproliferative activity against human SN12C cells at 10 uM assessed as cell growth inhibition relative to control
SK-OV-3 = experiment: Antiproliferative activity against human SKOV3 cells at 10 uM assessed as cell growth inhibition relative to control
NCI-H460 = experiment: Antiproliferative activity against human NCI-H460 cells at 10 uM assessed as cell growth inhibition relative to control
COLO 205 = experiment: Antiproliferative activity against human COLO205 cells at 10 uM assessed as cell growth inhibition relative to control
SW-620 = experiment: Antiproliferative activity against human SW620 cells at 10 uM assessed as cell growth inhibition relative to control
EKVX = experiment: Antiproliferative activity against human EKVX cells at 10 uM assessed as cell growth inhibition relative to control
NCI-H522 = experiment: Antiproliferative activity against human NCI-H522 cells at 10 uM assessed as cell growth inhibition relative to control
SF-539 = experiment: Antiproliferative activity against human SF539 cells at 10 uM assessed as cell growth inhibition relative to control
HOP-62 = experiment: Antiproliferative activity against human HOP62 cells at 10 uM assessed as cell growth inhibition relative to control
PC-3 = experiment: Antiproliferative activity against human PC3 cells at 10 uM assessed as cell growth inhibition relative to control
UO-31 = experiment: Antiproliferative activity against human UO31 cells at 10 uM assessed as cell growth inhibition relative to control
A549 = experiment: Antiproliferative activity against human A549 cells at 10 uM assessed as cell growth inhibition relative to control
[1] = Antiproliferative activity against human Hs 578T cells at 10 uM assessed as cell growth inhibition relative to control
NCI-H322M = experiment: Antiproliferative activity against human NCI-H322M cells at 10 uM assessed as cell growth inhibition relative to control
IGROV-1 = experiment: Antiproliferative activity against human IGROV1 cells at 10 uM assessed as cell growth inhibition relative to control
KM12 = experiment: Antiproliferative activity against human KM12 cells at 10 uM assessed as cell growth inhibition relative to control
U-251 = experiment: Antiproliferative activity against human U251 cells at 10 uM assessed as cell growth inhibition relative to control
HL-60(TB) = experiment: Antiproliferative activity against human HL-60(TB) cells at 10 uM assessed as cell growth inhibition relative to control
LOX IMVI = experiment: Antiproliferative activity against human LOXIMVI cells at 10 uM assessed as cell growth inhibition relative to control
RXF 393 = experiment: Antiproliferative activity against human RXF393 cells at 10 uM assessed as cell growth inhibition relative to control
[2] = Antiproliferative activity against human […] cells at 10 uM assessed as cell growth inhibition relative to control
HCT-116 = experiment: Antiproliferative activity against human HCT116 cells at 10 uM assessed as cell growth inhibition relative to control
UACC-62 = experiment: Antiproliferative activity against human UACC62 cells at 10 uM assessed as cell growth inhibition relative to control
786-0 = experiment: Antiproliferative activity against human 786-0 cells at 10 uM assessed as cell growth inhibition relative to control
SF-268 = experiment: Antiproliferative activity against human SF268 cells at 10 uM assessed as cell growth inhibition relative to control
SF-295 = experiment: Antiproliferative activity against human SF295 cells at 10 uM assessed as cell growth inhibition relative to control
OVCAR-4 = experiment: Antiproliferative activity against human OVCAR4 cells at 10 uM assessed as cell growth inhibition relative to control
MDA-MB-231 = experiment: Antiproliferative activity against human MDA-MB-231 cells at 10 uM assessed as cell growth inhibition relative to control
OVCAR-5 = experiment: Antiproliferative activity against human OVCAR5 cells at 10 uM assessed as cell growth inhibition relative to control
HCT-15 = experiment: Antiproliferative activity against human HCT15 cells at 10 uM assessed as cell growth inhibition relative to control
SK-MEL-2 = experiment: Antiproliferative activity against human SK-MEL-2 cells at 10 uM assessed as cell growth inhibition relative to control
UACC-257 = experiment: Antiproliferative activity against human UACC257 cells at 10 uM assessed as cell growth inhibition relative to control
A498 = experiment: Antiproliferative activity against human A498 cells at 10 uM assessed as cell growth inhibition relative to control
CCRF-CEM = experiment: Antiproliferative activity against human CCRF-CEM cells at 10 uM assessed as cell growth inhibition relative to control
HOP-92 = experiment: Antiproliferative activity against human HOP92 cells at 10 uM assessed as cell growth inhibition relative to control
SK-MEL-5 = experiment: Antiproliferative activity against human SK-MEL-5 cells at 10 uM assessed as cell growth inhibition relative to control
MCF7 = experiment: Antiproliferative activity against human MCF7 cells at 10 uM assessed as cell growth inhibition relative to control
MDA-MB-468 = experiment: Antiproliferative activity against human MDA-MB-468 cells at 10 uM assessed as cell growth inhibition relative to control
T47D = experiment: Antiproliferative activity against human T47D cells at 10 uM assessed as cell growth inhibition relative to control

CCOC(=O)C[C@H]1[C@@H](O[Si](C)(C)C(C)(C)C)[C@H](n2cnc3c(NC(=O)Nc4ccccc4)ncnc32)O[C@@H]1CN=[N+]=[N-]
growth, % of control at 10 µM (ACHN): 92% | growth, % of control at 10 µM (OVCAR-3): 111% | growth, % of control at 10 µM (Malme-3M): 97% | growth, % of control at 10 µM (TK-10): 103% | growth, % of control at 10 µM (M14): 101% | growth, % of control at 10 µM (SNB-75): 73% | growth, % of control at 10 µM (DU-145): 105% | growth, % of control at 10 µM (HCC 2998): 121% | growth, % of control at 10 µM (OVCAR-8): 98% | growth, % of control at 10 µM (SK-MEL-28): 116% | growth, % of control at 10 µM (NCI-H23): 97% | growth, % of control at 10 µM (CAKI-1): 87% | growth, % of control at 10 µM (HT-29): 104% | growth, % of control at 10 µM (NCI-H226): 62% | growth, % of control at 10 µM (SNB-19): 92% | growth, % of control at 10 µM (MOLT-4): 79% | growth, % of control at 10 µM (BT-549): 100% | growth, % of control at 10 µM (K562): 72% | growth, % of control at 10 µM (SN12C): 81% | growth, % of control at 10 µM (SK-OV-3): 101% | growth, % of control at 10 µM (NCI-H460): 104% | growth, % of control at 10 µM (COLO 205): 114% | growth, % of control at 10 µM (SW-620): 101% | growth, % of control at 10 µM (EKVX): 89% | growth, % of control at 10 µM (NCI-H522): 90% | growth, % of control at 10 µM (SF-539): 89% | growth, % of control at 10 µM (HOP-62): 98% | growth, % of control at 10 µM (PC-3): 64% | growth, % of control at 10 µM (UO-31): 83% | growth, % of control at 10 µM (A549): 103% | growth, % of control at 10 µM [1]: 92% | growth, % of control at 10 µM (NCI-H322M): 99% | growth, % of control at 10 µM (IGROV-1): 93% | growth, % of control at 10 µM (KM12): 101% | growth, % of control at 10 µM (U-251): 95% | growth, % of control at 10 µM (HL-60(TB)): 51% | growth, % of control at 10 µM (LOX IMVI): 96% | growth, % of control at 10 µM (RXF 393): 111% | growth, % of control at 10 µM [2]: 75% | growth, % of control at 10 µM (HCT-116): 82% | growth, % of control at 10 µM (UACC-62): 83% | growth, % of control at 10 µM (786-0): 89% | growth, % of control at 10 µM (SF-268): 95% | growth, % of control at 10 µM (SF-295): 94% | growth, % of control at 10 µM (OVCAR-4): 66% | growth, % of control at 10 µM (MDA-MB-231): 95% | growth, % of control at 10 µM (OVCAR-5): 107% | growth, % of control at 10 µM (HCT-15): 84% | growth, % of control at 10 µM (SK-MEL-2): 91% | growth, % of control at 10 µM (UACC-257): 88% | growth, % of control at 10 µM (A498): 121% | growth, % of control at 10 µM (CCRF-CEM): 63% | growth, % of control at 10 µM (HOP-92): 100% | growth, % of control at 10 µM (SK-MEL-5): 104% | growth, % of control at 10 µM (MCF7): 85% | growth, % of control at 10 µM (MDA-MB-468): 95% | growth, % of control at 10 µM (T47D): 73%
